Results: patent US20100204460A1, “NATURAL BRASSINOSTEROIDS FOR USE FOR TREATING HYPERPROLIFERATION, TREATING PROLIFERATIVE DISEASES AND REDUCING ADVERSE EFFECTS OF STEROID DYSFUNCTION IN MAMMALS, PHARMACEUTICAL COMPOSITION AND ITS USE” (priority 2007, published 2010)

Tests used:
Assay type in all cases: cell-based
[1] = system: multiple myeloma cell line RPMI 8226; assay: Calcein AM cytotoxicity assay, RPMI 8226; conditions: RPMI 8226; exposure 72 h (b71 says 96 h); mean ± SD; read-out: IC50 assessed by Calcein AM assay of surviving cells
MDA-MB-468 cells [2] = assay: BrdU incorporation assay, MDA-MB-468
Method: (§1) To analyze if the inhibition in cell viability was due to decreased cell proliferation, we measured DNA synthesis in the presence of BRs. The effect of brassinosteroids 9 or 6 on cell proliferation and DNA replication of the cancer cells was measured by BrdU incorporation assay. This immunostaining was based on nuclear incorporation of bromodeoxyuridine (BrdU) into DNA in place of thymidine during the S-phase of cell cycle detected by anti-specific-BrdU antibody following membrane permeabilization as described previously (Gratzner, Science. 1982, 218, 474-475). […] The BrdU reagent (0.1 mM; Sigma, MO, USA) was added in culture medium with cells for 4 h in a CO2 incubator at 37° C. After incubation the cells were washed three times with PBS and fixed with cold acetone-methanol (1:1, v/v) for 10 min. The cells were denaturated by HCl (1:5; Lachema, Czech Republic) and incubated with anti-specific-BrdU antibody (diluted 1:100 in PBS; clone Bu20a, DakoCytomation, Denmark) for 60 min in the dark. The cells were then washed three times in PBS (10 mM, pH 7.4) and incubated with goat anti-mouse fluorescein isothiocyanate (FITC)-labeled secondary antibody (Sigma, MO, USA) for 60 min in the dark. The cells were then washed three times in PBS and incubated with DAPI (50 μg/mL; Sigma, MO, USA) for 10 min in the dark. The coverslips with cells were washed in deionized water and mounted on glass slides, using the hydrophilic medium Mowiol (Calbiochem, Calif., USA) in glycerol-PBS (1:3, v/v) for fluorescence. Cells were visualized using microscopy and those incorporating BrdU (S phase cells) were counted in at least 25 fields and compared with the total number of all cells.

DU-145 cells [3] = assay: BrdU incorporation assay, DU-145
Method: as §1

MDA-MB-468 cells [4] = assay: Cell cycle distribution by flow cytometry, MDA-MB-468; conditions: IC50, 24 h; for Apoptosis subG1 fraction: control 10%; for Cell cycle distribution G2/M: control 17%; for Cell cycle distribution S: control 31%; for Cell cycle distribution G1: control 52%
From the text: (§2) In the MCF-7 breast cancer cell line that has been the most widely studied experimental cell system, the typical growth inhibitory response to antiestrogens is decrease in the proportion of cells synthesising DNA (S phase) after antiestrogen treatment. This decrease in S phase coincides with an increase in the proportion of cells in G0/G1 phase. The activity of the androgen receptor (AR) is also regulated by alterations in cell signaling. There has been reported ligand independent activation of AR in prostate cancer cells by different growth factors. As the AR can be activated in the absence of hormone, it appears that the conditions may be more restricted than those observed for ER. Use of physiologic doses of ligand (dihydrotestosterone, DHT) is of importance as the LNCaP cells proliferate only at DHT concentration of 10^−9 M or lower. […] In contrast to proliferation, transactivation of AR specific target genes (e.g. PSA) continues to increase with DHT doses of 10^−10 M and higher. It might be accepted for estrogen or androgen receptors as stronger cytotoxic activities of brassinosteroids 9 or 6 on hormone-sensitive (MCF-7, LNCaP) compared to hormone-insensitive (MDA-MB-468, DU-145) cell lines were found. Therefore we explored the possibility of cell cycle perturbation by BRs in different cancer cell lines. Flow cytometry was used to evaluate the number of cells in the particular phases of the cell cycle, including subG1 peak detection. Control and treated cells were washed twice with cold PBS and centrifuged at 360×g for 10 min at 4° C., and fixed with chilled ethanol (70%; v/v) by low-speeded vortexing. For detection of DNA content analysis, propidium iodide staining was used. The cells were analyzed using a FACSCalibur flow cytometer (BD Biosciences, San Jose, Calif.).
(§3) Flow-cytometric detection of apoptosis. Several studies have declared that the induction of apoptosis may be cell cycle-dependent. Therefore, in our next series of experiments, we tested if brassinosteroids 9 or 6 cause apoptosis of the breast and prostate cancer cells via cell cycle blockage. From this reason we carried out DNA cell cycle analysis by flow cytometry based on detection of endonucleolytic DNA degradation that results in extraction of low molecular weight DNA from the cells. […] The subG1 peak containing apoptotic bodies was however not observed in MCF-7 cells.

LNCaP cells = assay: Cell cycle distribution by flow cytometry, LNCaP; conditions: IC50, 24 h; for Apoptosis subG1 fraction: control 8%; for Cell cycle distribution S: control 14%; for Cell cycle distribution G2/M: control 16%; for Cell cycle distribution G1: control 70%
From the text: as §2, §3

DU-145 cells [5] = assay: Cell cycle distribution by flow cytometry, DU-145; conditions: IC50, 24 h; for Cell cycle distribution S: control 15%; for Apoptosis subG1 fraction: control 20%; for Cell cycle distribution G2/M: control 23%; for Cell cycle distribution G1: control 62%
From the text: as §2, §3

[6] = treated at IC50 for 6 h, control 64 ± 1.5
[7] = treated at IC50 for 12 h, control 58 ± 3.0
[8] = treated at IC50 for 24 h, control 64 ± 5.6
[9] = treated at IC50 for 6 h, control 51 ± 3.8
[10] = treated at IC50 for 12 h, control 54 ± 4.2
[11] = treated at IC50 for 24 h, control 56 ± 6.5

Structure (SMILES)	IC50 [1]	percentage of proliferating BrdU positive cells (MDA-MB-468 cells [2]; [6])	percentage of proliferating BrdU positive cells (MDA-MB-468 cells [2]; [7])	percentage of proliferating BrdU positive cells (MDA-MB-468 cells [2]; [8])	percentage of proliferating BrdU positive cells (DU-145 cells [3]; [9])	percentage of proliferating BrdU positive cells (DU-145 cells [3]; [10])	percentage of proliferating BrdU positive cells (DU-145 cells [3]; [11])	Apoptosis subG1 fraction (MDA-MB-468 cells [4])	Cell cycle distribution G2/M (MDA-MB-468 cells [4])	Cell cycle distribution S (MDA-MB-468 cells [4])	Cell cycle distribution G1 (MDA-MB-468 cells [4])	Apoptosis subG1 fraction (LNCaP cells)	Cell cycle distribution S (LNCaP cells)	Cell cycle distribution G2/M (LNCaP cells)	Cell cycle distribution G1 (LNCaP cells)	Cell cycle distribution S (DU-145 cells [5])	Apoptosis subG1 fraction (DU-145 cells [5])	Cell cycle distribution G2/M (DU-145 cells [5])	Cell cycle distribution G1 (DU-145 cells [5])
CC[C@@H](C(C)C)[C@@H](O)[C@H](O)[C@@H](C)[C@H]1CC[C@H]2[C@@H]3CC(=O)[C@H]4C[C@H](O)[C@H](O)C[C@]4(C)[C@H]3CC[C@]12C [Brassinosteroid 9, 28-Homocastasterone]	26 ± 1.4 µM	55 ± 5.0%	48 ± 4.6%	28 ± 4.6 %	41 ± 4.5%	36 ± 4.4 %	38 ± 4.0 %	35%	9%	17%	74%	18%	2%	4%	94%	8%	28%	46%	46%
CC(C)[C@@H](C)[C@@H](O)[C@H](O)[C@@H](C)[C@H]1CC[C@H]2[C@@H]3COC(=O)[C@H]4C[C@H](O)[C@H](O)C[C@]4(C)[C@H]3CC[C@]12C [Brassinosteroid 6, 24-Epibrassinolide]	> 50 µM	53 ± 4.4 %	55 ± 3.5%	43 ± 3.6 %	32 ± 3.8 %	27 ± 5.3 %	16 ± 1.5 %	75%	2%	10%	88%	47%	5%	9%	86%	8%	24%	39%	53%
